# In article PMC11079064, “Discovery of a brain penetrant small molecule antagonist targeting LPA1 receptors to reduce neuroinflammation and promote remyelination in multiple sclerosis” (Scientific Reports, 2024):
# Entries after “also recorded” stand apart in the source; their conditions may differ. Read-outs that look alike come from different tables or passages of the source.
# Columns and labels:
# [1] = system: off-target panel (SAFETYscan E/IC50 ELECT); experiment: Eurofins off-target panel (SAFETYscan E/IC50 ELECT); details: test concentration 30 µM
# Text: Supplemental Figure 1. Results from Eurofins SAFETYscan E/IC50 ELECT.
# [2] = target: T1, LPA1 (Mus musculus, UniProt P61793); experiment: In vivo brain binding of [3H]-OPC3497 radioligand; details: PIPE-791 dosed orally 2 h prior; 5 and 30 minutes after radioligand
# T1 construct: from tissue; host or cells: mouse brain (homogenate; forebrain of dosed C57BL6/N mice in the in vivo studies)
# Procedure: Supplemental Figure 3. OPC3497 is a suitable radioligand for evaluating LPA1 receptor occupancy. Following IV administration, [^3H]-OPC3497 binding in mouse brain increased rapidly, peaked 5 minutes post-dose and declined sharply over the evaluation period (2 h).
# [3] = system: mouse cortical brain slices; experiment: Lysolecithin-treated mouse organotypic slice culture, MBP and Caspr immunostaining; type: cell-based; details: then 5 days treatment
# Procedure: Slices were also evaluated using a histological endpoint. […] Caspr clustering was used as a marker for nodes of Ranvier formation which implicates the presence of functional axons that have responded to myelination[39],[40].
# Immunohistological evaluation of MBP and Caspr in mouse brain slice culture: Brain slices were cultured as described above. After compound treatment, slices were fixed in 4% PFA for 30 m, blocked in 10% donkey serum, 0.2% Triton X-100, followed by overnight incubation in primary antibodies in blocking solution. Antibodies used were MBP (rat, 1:500, Millipore, Temecula, CA), Caspr (rabbit 1:250 Abcam, Fremont, CA) Tuj1 (mouse, 1:500, Biolegend, San Diego, CA). Slices were washed with 3 × 15 m PBS followed by incubation with secondary antibodies (anti-rat, Alexa488; anti-rabbit, Alexa568, anti-mouse, Alexa647, Hoechst counterstain) in blocking buffer. All secondary antibodies were produced in donkey (Invitrogen, Carlsbad, CA, Carlsbad, CA) and used at 1:250. Filters were excised from insert, mounted with Fluoromount (Millipore Sigma, St. Louis) on a microscope slide and coverslipped. […] Image analysis was performed using ImageJ. MBP was expressed as MBP surface area normalized to Hoechst cell count; Caspr was expressed as the number of Caspr puncta normalized to Tuj1 intensity.
# [4] = system: MOG-EAE mouse model; experiment: MOG-EAE mouse model, visual evoked potentials; type: in vivo; details: day 21
# Procedure: To further assess myelin status, we measured conductance velocity in the optic nerve, a heavily myelinated tract that is sensitive to demyelination. To measure conductance, we utilized visual evoked potentials (VEPs), a measure for which clinical translatability makes it an especially salient endpoint[42],[43]. VEPs were measured on day 21. […] In comparison, latency in MOG immunized animals had slowed to 60.9 ms.
# VEP recordings were conducted 21–24 days post-MOG induction (for simplification, this will be referred to as a nominal Day 21 VEP throughout this document). To do this, animals were placed in a room with red light conditions and allowed to adapt for 1 h. Animals were anesthetized with an intraperitoneal injection of ketamine/Xyalazine (75/10 mg/kg). Pupils were dilated with 1.0% tropicamide (1 drop per eye) (Akorn Pharmaceuticals, Lake Forest, IL). One minute following application tropicamide, one drop of Genteal (Alcon Laboratories, Fort Worth, TX) was applied to each eye to maintain ocular moisture during anesthesia.
# VEPs were conducted using a Celeris system (Diagnosys, Lowell, MA). […] Flash VEPs were recorded from each eye independently and simultaneously. […] VEP waveforms were analyzed using Espion (Diagnosys, Lowell, MA). N1 latency for each eye was determined by averaging N1 from 3 independent VEP traces. Similarly, P1–N1 and N1–P1 amplitudes were determined. […]
# [5] = system: MOG-EAE mouse model; experiment: MOG-EAE mouse model, IBA1 immunostaining of spinal cord; type: in vivo; details: 3 mg/kg
# Procedure: A lower lumbar segment of spinal cord was transferred from the EM fixative to 30% sucrose overnight and then sectioned using a sliding microtome. The resulting sections were stored in 30% sucrose in 0.1 M Phosphate Buffer pH 7.4 and stored at 4 °C. Free-floating spinal cord sections were rinsed with PBS, blocked with 5% normal goat serum in 0.1% Triton-X/PBS for 2 h, and subsequently incubated with antibodies against IBA1 (Life Technologies, Carlsbad, CA, 1:500) or CD3 (Abcam, Waltham, MA, 1:500) overnight at 4 °C. Sections were then washed 3 times with 0.1% triton-X/PBS and transferred to secondary antibody (1:500, Carlsbad, CA) in 0.1% Triton-X/PBS for 2 h at room temperature. Hoechst 33342 was diluted 1:2000 and added during the final wash step. Sections were stained with 1% Sudan Black in 70% ethanol, and washed 3 × 5 min in PBS. Stained sections were mounted onto slides and evaluated using a Nikon A1R confocal microscope and analyzed using Nikon NIS Elements software. Regions of interest (ROIs) were selected based on the largest contiguous lesion defined by Hoechst and Sudan Black co-staining. […] Cells were counted using the automatic General Analysis function in NIS Elements.
# Supplemental Figure 9. […] Left, IBA1^+ area was quantified and normalized to Hoechst counts (* p = 0.0166, *** p=0.0002, mean ± SEM, ANOVA with Tukey’s, n>4). […]
# T1 sequence (P61793 whole entry): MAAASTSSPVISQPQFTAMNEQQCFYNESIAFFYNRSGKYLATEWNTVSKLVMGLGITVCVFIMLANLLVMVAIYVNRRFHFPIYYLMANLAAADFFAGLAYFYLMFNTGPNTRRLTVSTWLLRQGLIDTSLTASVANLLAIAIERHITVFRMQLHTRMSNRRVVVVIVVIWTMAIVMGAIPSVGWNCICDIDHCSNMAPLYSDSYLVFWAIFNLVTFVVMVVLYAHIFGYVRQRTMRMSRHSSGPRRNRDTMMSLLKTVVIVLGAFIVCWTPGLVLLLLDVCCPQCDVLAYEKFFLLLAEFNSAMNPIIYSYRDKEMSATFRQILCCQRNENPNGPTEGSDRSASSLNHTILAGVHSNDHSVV
compound,measurement,setting,value
COc1ccc(NC(=O)N(c2ccccc2C(C)C)C2CCC(C(=O)O)CC2)c(OC(F)F)n1 (stereo not shown) [PIPE-791],off-target activities,[1],no appreciable activities
same,effect on total [3H]-OPC3497 binding in brain,[2],significantly reduced
same,EC50,[3]; read-out: EC50 of MBP+ area increase,74 nM
same,EC50,[3]; read-out: EC50 of increase in number of Caspr puncta,17.9 nM
same,VEP N1 latency,[4]; 0.3 mg/kg,54.6 ms
same,VEP N1 latency,[4]; 3 mg/kg,52 ms
same,level of IBA1+ staining in spinal cord,[5],reduces IBA1^+ area; also recorded: significantly reduced
